In patent US20250108038A1 (priority 2023, published 2025):
“Also recorded” adds a separate entry of the source.

Columns and labels:
[1] = Stability in components of rat blood; type: in vitro ADME; settings: 0.5 mM, 37° C., 0-120 min
Protocol: FIG. 5A. […] Compound I-19 in components of rat blood. Red blood cells and plasma were isolated from whole blood. […] Values represent mean+SEM of n=3 separate experiments.
FIG. 5B. Stability of Compound I-4 in components of rat blood. Red blood cells and plasma were isolated from whole blood. […] Values represent mean+SEM of n=3 separate experiments.
Human and rat blood were centrifuged to separate out red blood cells at 1174×g for 15 min. The upper plasma level was aspirated with a micropipette and placed in a bleach solution for disposal. The RBC pellet was resuspended in sterile isotonic saline. The pellet was gently resuspended by rocking the tube. The sample was then centrifuged again to collect the RBC pellet and then resuspended and washed one more time following the same procedure. A total of three was done. Following the last wash and centrifugation, the RBCs were resuspended with PBS; and mixed by inversion. Aliquots of the resuspended and washed RBCs were then placed into 4 reaction tubes. These tubes were centrifuged to collect the RBCs. The fluid level was marked on each tube, then the supernatant was aspirated off and the cells resuspended with room temperature PBS pH 7.4 to the original mark. An aliquot of the RBC suspension was added to four sterile tubes containing PBS pH 7.4 at room temperature.
The stability of test articles in whole blood, red blood cells only, and plasma was done to determine stability in each blood compartment. 50 μL of test article was placed in each blood matrix. The final volume was 1 mL (0.5 mM). […] LCMSMS of parent compound was used to determine stability.

rat red blood cells = assay: Hemolysis study in rat blood; type: cell-based; settings: 60 min, 37° C.; for % RBC lysis (hemolytic potential): test articles 25, 50, 100 μM, amphotericin B 1, 10, 30, 100 μM
Protocol: (§1) FIG. 6A. […] Compound I-19 in rat blood. Red blood cells were isolated from whole blood and resuspended in PBS. […] (final concentrations 25, 50, and 100 μM) and the mixtures were incubated at 37° C. for 60 min. After the incubation, the samples were centrifuged and the absorbance of 100 μL of supernatant was read at 410 nm. % RBC lysis is expressed relative to 100% lysis control. Values represent mean+SEM of n=3 separate experiments.
as §1, with “6B.” for “6A.”, “μl” for “μL”
FIG. 6C. Hemolytic Potential of Amphotericin B in rat blood (positive assay control). Red blood cells were isolated from whole blood and resuspended in PBS. 190 μL of diluted RBC suspension and 10 μL of amphotericin B solutions were mixed at 0 min. (final concentrations 1, 10, 30, and 100 μM) and the mixtures were incubated at 37° C. for 60 min. After the incubation, the samples were centrifuged and the absorbance of 100 μL of supernatant was read at 410 nm. % RBC lysis is expressed relative to 100% lysis control. Values represent mean+SEM of n=3 separate experiments.
To a clear 96-well V-bottom polystyrene plate, the test articles (10 μL) and the diluted RBCs (190 μL) from human or rat blood were mixed for final concentrations of 25, 50, and 100 μM. The reaction mixture was incubated at 37° C. for 60 min. Following the exposure period, the plates were centrifuged. After centrifugation, 70 μL of supernatant (without disturbing the pellet) was transferred to a clean and clear polystyrene flat bottomed 96-well plate and the absorbance of the sample at a single wavelength was measured using a BioTech Synergy H1 Plate Reader at a wavelength of 410 nm. The positive control for this assay was amphotericin B test at concentrations of 1, 10, 30, and 100 μM.

MDR1 = MDR1 (Homo sapiens, UniProt P08183); assay: Vesicular transport inhibition assay, MDR1 (N-methyl quinidine); settings: for Maximum % inhibition: MDR1, inside-out membrane vesicles, NMQ (1 μM), NIO: No inhibition observed
Protocol: Vesicular transport assays were performed with inside-out membrane vesicles prepared from cells overexpressing human ABC (efflux) transporters. The transporters were expressed by SOLVO Biotechnology in mammalian (HEK293) cells. The mammalian cells were stably transfected with the ABC transporter of interest. The assays were conducted according to the actual SOLVO VT assay protocols (PR-ASY-VT-General Protocol for Vesicular Transport Inhibition Assays).
The membrane vesicle suspension was mixed with the ice-cold transport buffer, then the probe substrate solution was added. […] (for BCRP and MDR1). […] Reactions were quenched by the addition of 200 μL of ice-cold washing buffer and immediate filtration via glass fiber filters mounted to a 96-well plate (filter plate). The filters were washed (5×200 μL of ice-cold washing buffer), dried and the amount of substrate inside the filtered vesicles was determined by liquid scintillation counting.
Incubation with AMP provided background activity values for all data points.

[2] = 0.14 μM nominal, follow-up assay
[3] = 1.24 μM nominal, follow-up assay
[4] = 11.11 μM nominal, follow-up assay
[5] = 33.33 μM nominal, follow-up assay
[6] = 100.00 μM nominal, follow-up assay
[7] = 2-concentration assay, up to 100 μM (Compound A up to 50 μM)

Sequence of MDR1 (P08183 whole entry): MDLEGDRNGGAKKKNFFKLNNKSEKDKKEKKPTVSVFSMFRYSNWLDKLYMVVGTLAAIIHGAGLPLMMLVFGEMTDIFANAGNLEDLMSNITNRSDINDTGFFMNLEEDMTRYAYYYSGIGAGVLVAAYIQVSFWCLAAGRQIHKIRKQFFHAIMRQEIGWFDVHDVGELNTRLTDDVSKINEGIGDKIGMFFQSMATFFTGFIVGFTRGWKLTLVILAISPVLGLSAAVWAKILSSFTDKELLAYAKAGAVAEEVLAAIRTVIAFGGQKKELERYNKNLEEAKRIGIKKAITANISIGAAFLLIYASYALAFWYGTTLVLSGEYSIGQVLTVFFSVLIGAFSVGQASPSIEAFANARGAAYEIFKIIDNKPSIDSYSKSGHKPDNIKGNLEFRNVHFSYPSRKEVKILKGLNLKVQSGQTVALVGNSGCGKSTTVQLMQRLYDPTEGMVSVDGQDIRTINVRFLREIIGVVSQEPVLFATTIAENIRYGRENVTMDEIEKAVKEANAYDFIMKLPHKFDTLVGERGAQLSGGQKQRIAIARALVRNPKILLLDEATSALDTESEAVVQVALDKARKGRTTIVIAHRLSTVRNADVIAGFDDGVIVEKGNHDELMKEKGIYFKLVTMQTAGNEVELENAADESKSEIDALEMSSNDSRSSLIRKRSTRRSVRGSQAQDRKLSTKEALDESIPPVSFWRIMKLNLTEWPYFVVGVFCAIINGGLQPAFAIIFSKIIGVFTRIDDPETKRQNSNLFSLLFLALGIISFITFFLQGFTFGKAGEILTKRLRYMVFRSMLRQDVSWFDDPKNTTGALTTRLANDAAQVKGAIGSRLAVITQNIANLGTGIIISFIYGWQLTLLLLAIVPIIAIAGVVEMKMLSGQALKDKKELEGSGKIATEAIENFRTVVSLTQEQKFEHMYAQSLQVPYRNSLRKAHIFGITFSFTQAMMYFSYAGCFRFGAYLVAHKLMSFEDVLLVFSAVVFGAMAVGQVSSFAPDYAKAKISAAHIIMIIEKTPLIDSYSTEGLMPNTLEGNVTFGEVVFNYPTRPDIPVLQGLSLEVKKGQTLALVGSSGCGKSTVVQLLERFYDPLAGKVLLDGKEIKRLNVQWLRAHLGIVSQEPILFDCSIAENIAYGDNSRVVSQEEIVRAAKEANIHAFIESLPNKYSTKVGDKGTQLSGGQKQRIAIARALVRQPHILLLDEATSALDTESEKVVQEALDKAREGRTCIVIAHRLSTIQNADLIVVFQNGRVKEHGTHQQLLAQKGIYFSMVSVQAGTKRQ

SMILES: Clc1ccc(C2(OCC3OCCO3)c3ccccc3C3=NCCN32)cc1 (centres unmarked) [Compound I-19]
- % parent compound remaining ([1]; rat plasma): small time-dependent decrease in the amount of parent compound present
- % parent compound remaining ([1]; rat red blood cells): small time-dependent decrease in the amount of parent compound present
- % parent compound remaining ([1]; rat whole blood): small time-dependent decrease in the amount of parent compound present
- EC50 (% RBC lysis) (rat red blood cells): outside the concentration range tested
- % RBC lysis (hemolytic potential) (rat red blood cells): no detectable hemolysis
- ATP-dependent transport (MDR1; [2]): 3,812.00 ± 42.21 cpm
- Relative ATP-dependent transport (MDR1; [2]): 101.02 ± 3.23 % of control
- Relative inhibition (MDR1; [2]): −1%
- ATP-dependent transport (MDR1; [3]): 3,744.33 ± 56.10 cpm
- Relative ATP-dependent transport (MDR1; [3]): 99.23 ± 3.33 % of control
- Relative inhibition (MDR1; [3]): 1%
- ATP-dependent transport (MDR1; 10.00 μM nominal): 1,845.67 ± 148.09 cpm
- Relative ATP-dependent transport (MDR1; 10.00 μM nominal): 51.19 ± 4.18 % of control
- Relative inhibition (MDR1; 10.00 μM nominal): 49%
- ATP-dependent transport (MDR1; [4]): 2,730.67 ± 83.62 cpm
- Relative ATP-dependent transport (MDR1; [4]): 72.36 ± 3.10 % of control
- Relative inhibition (MDR1; [4]): 28%
- ATP-dependent transport (MDR1; [5]): 1,363.00 ± 46.72 cpm
- Relative ATP-dependent transport (MDR1; [5]): 36.12 ± 1.64 % of control
- Relative inhibition (MDR1; [5]): 64%
- ATP-dependent transport (MDR1; 100.00 μM nominal): 2.84 ± 21.41 cpm
- Relative ATP-dependent transport (MDR1; 100.00 μM nominal): 7.89 ± 0.61 % of control
- Relative inhibition (MDR1; 100.00 μM nominal): 92%
- ATP-dependent transport (MDR1; [6]): 407.00 ± 29.39 cpm
- Relative ATP-dependent transport (MDR1; [6]): 10.79 ± 0.84 % of control
- Relative inhibition (MDR1; [6]): 89%
- maximum inhibition of MDR1-mediated NMQ accumulation (MDR1; [7]): 92%
- Maximum % inhibition (MDR1): 89%
- maximum inhibition of MDR1-mediated NMQ accumulation (MDR1; follow-up assay): 89%
- IC50 (MDR1; follow-up assay, bottom constrained to 0): 21 µM

SMILES: OC1(c2ccc(Cl)cc2)c2ccccc2C2=NCCN21 (centres unmarked) [Compound A, 5-(4-chlorophenyl)-2,3-dihydroimidazo[1,2-b]isoindol-5-ol, reference compound]
- Relative ATP-dependent transport (MDR1; 5.00 μM nominal): 99.11 ± 9.38 % of control
- Relative ATP-dependent transport (MDR1; 50.00 μM nominal): 97.83 ± 5.19 % of control
- maximum inhibition of MDR1-mediated NMQ accumulation (MDR1; [7]): did not inhibit; also recorded: not an in vitro inhibitor
- Maximum % inhibition (MDR1): NIO
- inhibition at 5 μM (MDR1; human, Relative inhibition, 5.00 μM nominal): 1%
- inhibition at 50 μM (MDR1; human, Relative inhibition, 50.00 μM nominal): 2%

SMILES: COCCOC1(c2ccc(Cl)cc2)c2ccccc2C2=NCCN21 (centres unmarked) [Compound I-4]
- % parent compound remaining ([1]; rat plasma): no significant change in the amount of parent compound
- % parent compound remaining ([1]; rat red blood cells): small time-dependent decrease in the amount of parent compound remaining
- % parent compound remaining ([1]; rat whole blood): small time-dependent decrease in the amount of parent compound remaining
- EC50 (% RBC lysis) (rat red blood cells): outside the concentration range tested
- % RBC lysis (hemolytic potential) (rat red blood cells): no detectable hemolysis
